Assay results from PMC6201879, “N-substituted phenylbenzamides of the niclosamide chemotype attenuate obesity related changes in high fat diet fed mice” (PLoS ONE, 2018).
Like-named read-outs stand apart in the source and are kept apart here.

Assays:
PH5CH8 liver cells = test: High-throughput hepatic de novo lipogenesis (DNL) assay, high content imaging of steatotic phenotype; type: cell-based, human; conditions: for IC50: Homo sapiens
[1] = system: HEK293 cells stably transduced with the human OCT3 transporter; test: Cellular oxygen consumption rate (OCR), MitoXpress Xtra; type: cell-based; conditions: HEK293 cells expressing human OCT3; for change in respiration / oxygen consumption rate (OCR): compared to DMSO control, 2 hours; for concentration dependence of OCR change: four concentrations
Protocol: Oxygen consumption rate experiments were performed by ZenBio, Inc (RTP, NC). HEK293 cells stably transduced with the human OCT3 transporter were plated in black-walled microclear plates (Greiner-BioOne) at 60,000 cells per well in growth medium. Cells were incubated overnight to allow attachment before growth medium was removed and replaced with 150μL of assay medium containing compound dilutions. Four concentrations of each compound were prepared and transferred to the empty wells. Control wells contained assay medium only or assay medium containing […] (FCCP) at 1μM. Ten μL of MitoXpress Xtra reagent was added to each test well and 100μL of pre-warmed mineral oil was overlaid in each well to create a seal. The plates were immediately read on a FLUOstar Omega (BMG) using dual read Time Resolved Fluorescence (TR-F) for 2 hours, with measurements taken every 2 minutes using 340nm and 650nm as excitation and emission wavelengths respectively. For lifetime analysis, two measurements per well were taken: 1) delay of 30μs, with a window of 30μs; and 2) delay of 70μs with a window of 30μs. Background TRF values were subtracted from all readings. A ratiometric analysis was performed to determine changes in the Lifetime fluorescence signal: Lifetime (μs)[T] = (D2-D1)/ln(W1/W2), where D is delay; W is fluorescence window value at each time point. Lifetime slopes were calculated using each Lifetime measurement over time. Data are presented as mean ± standard error (SE). The differences between the control (DMSO) and compound treated wells were analyzed using the Student’s t-test. A value of p≤0.05 was considered statistically significant. […]

[2] = system: C57-diet induced obesity (DIO) mouse; test: Glucose tolerance test in DIO mice; type: in vivo; conditions: 5mg/kg for 7 days
Protocol: Animals were then treated with 5mg/kg niclosamide or vehicle for 7 days and GTT was performed again.
Glucose tolerance test in DIO mice. 2g/kg of glucose was injected IP and at 15, 30 and 60 min, blood glucose levels were measured.

[3] = system: Salmonella typhimurium TA100; conditions: for Mean Revertant Colony Counts TA-100 SP9+: with S9
[4] = system: Salmonella typhimurium TA1535
[5] = system: Salmonella typhimurium TA1537
[6] = system: carbonic anhydrase-III (CAIII); conditions: HFD fed-DIO mice; cited from earlier work
[7] = design: method as in PMID 26245118; conditions: cited from earlier work
[8] = cited from earlier work
[9] = system: Salmonella typhimurium TA98; test: Ames assay, strain TA98; conditions: for Mean Revertant Colony Counts TA98 SP9+: with S9
[10] = system: Escherichia coli WP2 uvrA (pKM101); test: Ames assay, strain WP2 uvrA (pKM101); conditions: for Mean Revertant Colony Counts WP2 uvrA (pKM101) SP9+: with S9; for Mean Revertant Colony Counts WP2 uvrA (pKM101) S9-: without S9
p-AMPK Thr-172 = test: Western blot of p-AMPK Thr-172 in liver of HFD-fed mice
[11] = system: Salmonella typhimurium (TA98, TA100, TA1535 and TA1537) and Escherichia coli (WP2 uvrA (pKM101)); test: Ames assay, overall outcome and cytotoxicity across strains
[12] = system: fatty acid synthase (FAS); test: Western blot of fatty acid synthase in liver of HFD-fed mice
[13] = system: Escherichia coli WP2 uvrA (pKM101)
[14] = system: phospho-AMPK Thr-172 (p-AMPK); test: Western blot of phospho-AMPK Thr-172 in HEK293T cells; type: cell-based, human
Protocol: AMPK is a metabolic sensor that maintains cellular energy supply. As validation of these changes in lipid metabolism and cellular respiration we evaluated phospho-AMPK Thr-172 (p-AMPK) levels by Western blot in HEK293 cells treated with the phenylbenzamide derivatives. Compounds were screened at 1 and 10μM using the known uncouplers niclosamide and FCCP as positive controls (Fig 4A). […] We concluded that compounds that had little effect on oxygen consumption rates also had little effect on phosphorylation of AMPK.

[15] = system: phospho-S6 ribosomal protein; test: Western blot of phospho-S6 ribosomal protein in HEK293T cells; type: cell-based, human
[16] = Body weight changes in HFD-fed mice; type: in vivo, mouse
Protocol: We next measured body weight changes in HFD-fed animals prior to treatment with niclosamide or phenylbenzamide derivatives and after 12 days, prior to sacrifice. During this time, all animals (including sham) lost some weight.
20-week old animals were treated IP with 500199 at 10 or 25mg/kg by IP over a time-course of 9 days. At day 0, 3, 6 and 9 animals were weighed and tissue samples were collected for standard histological scoring of hepatic steatosis and automated quantitative histomorphometric scoring.

[17] = system: carbonic anhydrase-III (CAIII); test: Western blot of carbonic anhydrase III in liver of HFD-fed mice; conditions: HFD fed-DIO mice; 10mg/kg for 12 days; vs sham
[18] = PH5CH8 liver cells, 10-point dose response between 1μM and 1.9nM, read-out: IC50 (uM), inhibition of steatotic phenotype in DNL assay
[19] = any concentration tested, vs negative control
[20] = HFD fed-DIO mice, 10mg/kg for 12 days, vs sham

Compound: O=C(Nc1ccc([N+](=O)[O-])cc1Cl)c1cc(Cl)ccc1O [Niclosamide]
- IC50 (PH5CH8 liver cells; [18]): 0.02 µM
- reduced steatosis (steatotic phenotype in DNL assay) (PH5CH8 liver cells; PH5CH8, assay validation): 77 ±12%
- change in respiration / oxygen consumption rate (OCR) [1]: increased OCR
- concentration dependence of OCR change [1]: dose dependent increase in OCR
- blood glucose levels at 60 minutes, glucose tolerance test ([2]; 2g/kg glucose IP): 250 mg/dL
- plasma glucose levels after the 7-day treatment period ([2]; pre-treatment approximately 400mg/dL): ~275 mg/dL
- Mean Revertant Colony Counts TA-100 SP9+ ([3]; 1.5 ug/Well): 19.3
- Mean Revertant Colony Counts TA-100 S9- ([3]; 1.5 ug/Well, without S9): 9.3
- Mean Revertant Colony Counts TA-100 SP9+ ([3]; 4 ug/Well): 36.7
- Mean Revertant Colony Counts TA-100 SP9+ ([3]; 10 ug/Well): 23.3
- Mean Revertant Colony Counts TA-100 SP9+ ([3]; 25 ug/Well): 2.3
- fold increase in the mean number of revertant colonies, TA100 [3, 19]: < 2 fold
- Mean Revertant Colony Counts TA-1535 SP9+ ([4]; 1.5 ug/Well, with S9): 3.3
- Mean Revertant Colony Counts TA-1535 SP9+ ([4]; 4 ug/Well, with S9): 3.7
- fold increase in the mean number of revertant colonies, TA1535 [4, 19]: < 3 fold
- Mean Revertant Colony Counts TA-1537 SP9+ ([5]; 1.5 ug/Well, with S9): 1.7
- Mean Revertant Colony Counts TA-1537 SP9+ ([5]; 4 ug/Well, with S9): 2.0
- Mean Revertant Colony Counts TA-1537 SP9+ ([5]; 10 ug/Well, with S9): 0.7
- fold increase in the mean number of revertant colonies, TA1537 [5, 19]: < 3 fold
- carbonic anhydrase-III (CAIII) hepatic protein [6]: down regulated
- half-life [7]: 6.7 h
- peak plasma concentration (Cmax) ([8]; 5mg/kg oral dose in rats): 354 ng/mL
- half-life ([8]; rat, in vivo, po, 5 mg/kg): 6.7 h
- Mean Revertant Colony Counts TA98 SP9+ ([9]; 1.5 ug/Well): 52.0
- Mean Revertant Colony Counts TA98 S9- ([9]; 1.5 ug/Well, without S9): 1.5
- Mean Revertant Colony Counts TA98 SP9+ ([9]; 4 ug/Well): 108.3
- Mean Revertant Colony Counts TA98 SP9+ ([9]; 10 ug/Well): 194.7
- fold increase in the mean number of revertant colonies, TA98 ([9]; 1.5, 4 and 10 μg/well in the presence of S9 mix): ≥ 2 fold
- Mean Revertant Colony Counts WP2 uvrA (pKM101) SP9+ ([10]; 1.5 ug/Well): 36.7
- Mean Revertant Colony Counts WP2 uvrA (pKM101) S9- ([10]; 1.5 ug/Well): 17.3
- Mean Revertant Colony Counts WP2 uvrA (pKM101) SP9+ ([10]; 4 ug/Well): 44.0
- Mean Revertant Colony Counts WP2 uvrA (pKM101) S9- ([10]; 4 ug/Well): 20.7
- Mean Revertant Colony Counts WP2 uvrA (pKM101) SP9+ ([10]; 10 ug/Well): 34.0
- Mean Revertant Colony Counts WP2 uvrA (pKM101) S9- ([10]; 10 ug/Well): 19.3
- Mean Revertant Colony Counts WP2 uvrA (pKM101) SP9+ ([10]; 25 ug/Well): 31.7
- Mean Revertant Colony Counts WP2 uvrA (pKM101) S9- ([10]; 25 ug/Well): 14.7
- Mean Revertant Colony Counts WP2 uvrA (pKM101) SP9+ ([10]; 64 ug/Well): 27.0
- Mean Revertant Colony Counts WP2 uvrA (pKM101) S9- ([10]; 64 ug/Well): 22.7
- Mean Revertant Colony Counts WP2 uvrA (pKM101) SP9+ ([10]; 160 ug/Well): 24.7
- Mean Revertant Colony Counts WP2 uvrA (pKM101) S9- ([10]; 160 ug/Well): 17.7
- Mean Revertant Colony Counts WP2 uvrA (pKM101) SP9+ ([10]; 400 ug/Well): 14.7
- Mean Revertant Colony Counts WP2 uvrA (pKM101) S9- ([10]; 400 ug/Well): 17.7
- Mean Revertant Colony Counts WP2 uvrA (pKM101) SP9+ ([10]; 1000 ug/Well): 14.7
- Mean Revertant Colony Counts WP2 uvrA (pKM101) S9- ([10]; 1000 ug/Well): 14.0
- fold increase in the mean number of revertant colonies, WP2 uvrA (pKM101) [10, 19]: < 2 fold
- concentration with significant cytotoxicity, WP2 uvrA (pKM101) ([10]; both in the presence and absence of S9 mix): ≥ 400 μg /well
- p-AMPK Thr-172 in liver (p-AMPK Thr-172; HFD-fed mice, 5 or 25mg/kg IP daily for 12 days): significantly upregulated
- Ames assay outcome (mutagenicity) [11]: positive
- concentration with significant cytotoxicity, strains TA98, TA100, TA1535 and TA1537 ([11]; in the absence of the S9 mix): ≥ 1.5 μg /well
- concentration with significant cytotoxicity, strains TA98, TA100, TA1535 and TA1537 ([11]; in the presence of S9 mix): ≥ 10 μg /well
- expression of fatty acid synthase (FAS) in liver ([12]; HFD-fed mice, highest concentration (25mg/kg) IP daily for 12 days): significant reduction

Compound: Nc1ccc2cc3ccccc3cc2c1 [Compound 2-AA, 2-Aminoanthracene, reference compound]
- Mean Revertant Colony Counts TA-1535 SP9+ ([4]; Salmonella typhimurium): 24.0
- Mean Revertant Colony Counts TA-1537 SP9+ ([5]; Salmonella typhimurium): 11.0
- Mean Revertant Colony Counts WP2 uvrA (pKM101) SP9+ [13]: 345.3

Compound: COC(=O)c1ccc(NC(=O)c2cc(C(C)(C)C)ccc2O)c(Cl)c1 [Compound 500199, Methyl 4-[(5-tert-butyl-2-hydroxybenzene)amido]-3-chlorobenzoate]
- IC50 (PH5CH8 liver cells; [18]): 0.06 µM
- IC50 (PH5CH8 liver cells; S1 Table, SAR for N-Substituted Phenylbenzamides, read-out: IC50): 0.066 µM
- Active/Inactive (PH5CH8 liver cells; S1 Table, SAR for N-Substituted Phenylbenzamides): Active
- change in respiration / oxygen consumption rate (OCR) [1]: significant changes
- concentration dependence of OCR change [1]: dose dependent increase in OCR
- phosphorylation of AMPK (p-AMPK Thr-172) by Western blot ([14]; 1 and 10μM, negatives re-screened at 5 and 20 μM, 3 hours): stimulated phosphorylation of AMPK
- concentration at which phosphorylation of AMPK peaks ([14]; Western blot): 5 µM
- phospho-S6 ribosomal protein [15]: inversely regulated
- body weight change vs sham ([16]; 10mg/kg I.P daily for 12 days): lost significantly more weight
- body weight vs sham ([16]; 10 or 25mg/kg IP over 9 days): no statistically significant difference
- phosphorylation of AMPK at Thr-172 in liver (p-AMPK Thr-172; [20]): stimulated phosphorylation of AMPK at Thr-172
- FAS protein levels in liver [12, 20]: reduced
- CAIII protein levels in liver [17]: reduced
